Laboratory results reported in US20130196934A1, “COMPOSITION FOR PERINATAL AND NEONATAL STROKE” (priority 2010, published 2013).

Test system: red blood cell (RBC)
Experiment: Cell-based antioxidant protection in erythrocytes (CAP-e) assay
Details: human RBC, AAPH; biphasic dose response; FIG. 2
Description: As a model cell type, red blood cell (RBC) was used. This is an inert cell type, in contrast to other cell types such as PMN cells as described in section 2, where pro-inflammatory compounds may induce the reactive oxidative burst, or anti-inflammatory compounds may perform cellular signaling and change the behavior of the PMN cell, at doses many times below levels of detection for antioxidants. This assay was developed particularly to be able to assess antioxidants from complex natural products in a cell-based system. Human RBC were washed repeatedly physiological saline, and then exposed to the test products. During the incubation with the test products, any antioxidant compounds able to cross the cell membrane will enter the interior of the RBC. Then the RBC are washed to remove compounds that were not absorbed by the cells, loaded with the DCF-DA dye, which turns fluorescent upon exposure to reactive oxygen species. Oxidation was triggered by addition of the peroxyl free radical generator AAPH. The fluorescence intensity was evaluated. The low fluorescence intensity of untreated control cells served as a baseline, and RBC treated with AAPH alone served as a positive control for maximum oxidative damage.

O=C[C@H](O)[C@H](O)[C@H](O)CO [ribose, Ribose]
antioxidant protection of erythrocytes from oxidative damage: protected the erythrocytes
